In patent publication US20110092476A1, “Bicycloheteroaryl compounds as P2X7 modulators and uses thereof” (Renovis, Inc., priority 2006, published 2011):

These compounds were tested against T1, P2X7 receptor (Homo sapiens, UniProt Q99572) (assay: IL-1β release assay in differentiated THP-1 cells stimulated with BzATP (Example 9)). Conditions: 0.1 μM compound (symbols *); differentiated THP-1 cells, BzATP 250 uM; read-out: IL-1β % Inhib. @ 0.3 or 0.1 uM.
T1 construct: host or cells: THP-1 cells differentiated with LPS and IFN-γ
T1 sequence (Q99572 1-595): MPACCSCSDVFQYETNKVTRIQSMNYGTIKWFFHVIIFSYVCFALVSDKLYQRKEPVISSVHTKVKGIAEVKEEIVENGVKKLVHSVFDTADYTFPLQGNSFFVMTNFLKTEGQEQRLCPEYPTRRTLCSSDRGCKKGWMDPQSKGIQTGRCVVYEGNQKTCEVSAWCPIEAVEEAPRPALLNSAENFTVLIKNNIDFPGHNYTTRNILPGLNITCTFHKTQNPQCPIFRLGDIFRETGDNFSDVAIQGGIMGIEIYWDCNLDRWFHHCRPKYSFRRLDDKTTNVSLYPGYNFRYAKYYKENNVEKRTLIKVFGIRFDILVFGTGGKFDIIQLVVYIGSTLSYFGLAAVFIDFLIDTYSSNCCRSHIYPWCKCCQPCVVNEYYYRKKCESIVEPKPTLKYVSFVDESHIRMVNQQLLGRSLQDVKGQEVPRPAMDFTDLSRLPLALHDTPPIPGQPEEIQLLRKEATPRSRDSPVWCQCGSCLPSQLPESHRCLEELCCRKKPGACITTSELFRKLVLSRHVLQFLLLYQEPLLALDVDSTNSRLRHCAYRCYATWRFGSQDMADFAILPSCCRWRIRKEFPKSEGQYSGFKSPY
Assay type: cell-based
How it was run: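 THP-1 cells differentiated 16 h with 100 ng/mL LPS and 100 ng/mL IFN-γ, primed 2 h with fresh LPS, pretreated 30 min with compound, then stimulated 45 min with 250 uM BzATP (final). Supernatant IL-1β measured by ELISA; background-adjusted percent inhibition fitted to a four-parameter logistic for IC50.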

Compound | inhibition at 0.1 µM
CC(CO)n1ccc2c(NC(=O)c3cc4ccccc4o3)cccc2c1=O (stereo not drawn) [Compound 112] | 0 to 25%
CC(O)Cn1ccc2c(NC(=O)C(C)c3ccccc3)cccc2c1=O (stereo not drawn) [Compound 148] | 0 to 25%
COc1ccccc1CCC(=O)Nc1cccc2c(=O)n(C(C)CO)ccc12 (stereo not drawn) [Compound 104] | 0 to 25%
Cc1ccccc1CCC(=O)Nc1cccc2c(=O)n(CC(C)(C)O)ccc12 [Compound 187] | 0 to 25%
Cc1ccc(C)c(CC(=O)Nc2cccc3c(=O)n(CC(C)O)ccc23)c1 (stereo not drawn) [Compound 130] | 26 to 50%
COc1ccc(OC)c(CC(=O)Nc2cccc3c(=O)n(C(C)CO)ccc23)c1 (stereo not drawn) [Compound 108] | 0 to 25%
Cc1cccc(CC(=O)Nc2cccc3c(=O)n(CC(C)O)ccc23)c1 (stereo not drawn) [Compound 159] | 0 to 25%
Cc1cccc(C(=O)Nc2cccc3c(=O)n(CC4(O)CCCCC4)ccc23)c1C [Compound 85] | 0 to 25%
CC(CO)n1ccc2c(NC(=O)c3ccc(-c4ccccc4)cc3)cccc2c1=O (stereo not drawn) [Compound 102] | 0 to 25%
CCOc1cccc(C(=O)Nc2cccc3c(=O)n(CC(C)O)ccc23)c1 (stereo not drawn) [Compound 132] | 0 to 25%
Cc1ccc(C)c(CC(=O)Nc2cccc3c(=O)n(CC(C)(C)O)ccc23)c1 [Compound 191] | 0 to 25%
COc1ccc(CC(=O)Nc2cccc3c(=O)n(C(C)CO)ccc23)cc1 (stereo not drawn) [Compound 110] | 0 to 25%
CC(O)Cn1ccc2c(NC(=O)c3ccc4c(c3)OCCCO4)cccc2c1=O (stereo not drawn) [Compound 171] | 0 to 25%
CC(O)Cn1ccc2c(NC(=O)CCc3ccc4c(c3)OCO4)cccc2c1=O (stereo not drawn) [Compound 134] | 0 to 25%
CC(C)(C)c1ccc(C(=O)Nc2cccc3c(=O)n(CC4(O)CCCCC4)ccc23)cc1 [Compound 23] | 0 to 25%
Cc1cccc(CCC(=O)Nc2cccc3c(=O)n(CC(C)O)ccc23)c1 (stereo not drawn) [Compound 180] | 0 to 25%
Cc1ccc(CC(=O)Nc2cccc3c(=O)n(CC(C)O)ccc23)cc1 (stereo not drawn) [Compound 162] | 0 to 25%
CC(O)Cn1ccc2c(NC(=O)c3ccc(C(C)(C)C)cc3)cccc2c1=O (stereo not drawn) [Compound 147] | 0 to 25%
Cc1ccc(Cl)c(C(=O)Nc2cccc3c(=O)n(C(C)CO)ccc23)c1 (stereo not drawn) [Compound 121] | 0 to 25%
Cc1c(Cl)cccc1C(=O)Nc1cccc2c(=O)n(CC(C)O)ccc12 (stereo not drawn) [Compound 172] | 51 to 75%
Cc1ccccc1CC(=O)Nc1cccc2c(=O)n(CC3(O)CCCCC3)ccc12 [Compound 89] | 0 to 25%

Further lines, results first:

inhibition at 0.1 µM | Compound
0 to 25% | CCOc1cccc(C(=O)Nc2cccc3c(=O)n(CC(C)(C)O)ccc23)c1 [Compound 193]
0 to 25% | CC(C)(O)Cn1ccc2c(NC(=O)CCc3ccccc3Cl)cccc2c1=O [Compound 194]

Same assay, conditions: 0.1 μM compound; differentiated THP-1 cells, BzATP 250 uM; "*" symbols; read-out: IL-1β % Inhib. @ 0.3 or 0.1 uM

inhibition at 0.1 µM | Compound
0 to 25% | CC(C)(O)Cn1ccc2c(NC(=O)c3cc(Cl)ccc3Cl)cccc2c1=O [Compound 199]
0 to 25% | COc1ccccc1CC(=O)Nc1cccc2c(=O)n(CC(C)(C)O)ccc12 [Compound 209]
0 to 25% | CC(C)(O)Cn1ccc2c(NC(=O)Cc3ccccc3Cl)cccc2c1=O [Compound 208]
26 to 50% | Cc1cc(Cl)ccc1C(=O)Nc1cccc2c(=O)n(CC(C)(C)O)ccc12 [Compound 221]
51 to 75% | CC(C)(O)Cn1ccc2c(NC(=O)c3ccccc3Cl)cccc2c1=O [Compound 197]
0 to 25% | COc1ccc(C(=O)Nc2cccc3c(=O)n(CC(C)(C)O)ccc23)cc1C [Compound 227]
0 to 25% | CC(C)(O)Cn1ccc2c(NC(=O)Cc3cccc4ccccc34)cccc2c1=O [Compound 205]

Same assay, conditions: 0.3 μM compound (symbols +); differentiated THP-1 cells, BzATP 250 uM; read-out: IL-1β % Inhib. @ 0.3 or 0.1 uM

inhibition at 0.3 µM | Compound
26 to 50% | O=C(Cc1ccc(C(F)(F)F)cc1)Nc1cccc2c1CCN(CCO)C2=O [Compound 60]
0 to 25% | O=C(Cc1ccccc1)Nc1cccc2c(=O)n(CCO)ccc12 [Compound 76]
> 76% | COc1ccc(CC(=O)Nc2cccc3c(=O)n(CCO)ccc23)cc1Br [Compound 66]
0 to 25% | COc1cc(CC(=O)Nc2cccc3c(=O)n(CC4(O)CCCCC4)ccc23)cc(OC)c1 [Compound 39]
26 to 50% | O=C(Nc1cccc2c(=O)n(CC3(O)CCCCC3)ccc12)c1cc2cc(Cl)ccc2o1 [Compound 54]
0 to 25% | COc1ccc(C(=O)Nc2cccc3c(=O)n(C(CO)CO)ccc23)c(OC)c1 [Compound 5]
26 to 50% | COc1ccccc1CC(=O)Nc1cccc2c(=O)n(CC3(O)CCCCC3)ccc12 [Compound 29]
0 to 25% | Cc1cccc(CCC(=O)Nc2cccc3c(=O)n(CC4(O)CCCCC4)ccc23)c1 [Compound 53]
0 to 25% | CCOc1ccc(CC(=O)Nc2cccc3c(=O)n(CC4(O)CCCCC4)ccc23)cc1 [Compound 34]
0 to 25% | O=C(Nc1cccc2c(=O)n(CC3(O)CCCCC3)ccc12)c1ccc2ccccc2c1 [Compound 27]
0 to 25% | COc1ccc(OC)c(CC(=O)Nc2cccc3c(=O)n(CC4(O)CCCCC4)ccc23)c1 [Compound 30]

Same assay, conditions: 0.3 μM compound; differentiated THP-1 cells, BzATP 250 uM; "+" symbols; read-out: IL-1β % Inhib. @ 0.3 or 0.1 uM

inhibition at 0.3 µM | Compound
> 76% | C[C@H](C(N)=O)n1ccc2c(NC(=O)Cc3ccc(Cl)c(Cl)c3)cccc2c1=O [Compound 239]
51 to 75% | C[C@@H](CO)n1ccc2c(NC(=O)Cc3ccc(C(F)(F)F)cc3)cccc2c1=O [Compound 318]
51 to 75% | O=C(Cc1ccc(Cl)cc1C(F)(F)F)Nc1cccc2c(=O)n(CCO)ccc12 [Compound 229]
> 76% | CC(C(=O)Nc1cccc2c(=O)n([C@@H](C)C(N)=O)ccc12)c1ccc(Cl)c(C(F)(F)F)c1 (stereo partly drawn) [Compound 356]
> 76% | CNCCn1ccc2c(NC(=O)Cc3ccc(Cl)c(C(F)(F)F)c3)cccc2c1=O [Compound 235, 2-(4-Chloro-3-trifluoromethyl-phenyl)-N-[2-(2-methylamino-ethyl)-1-oxo-1,2-dihydro-isoquinolin-5-yl]-acetamide]
> 76% | C[C@@H](C(N)=O)n1ccc2c(NC(=O)Cc3ccc(Cl)c(F)c3)cccc2c1=O [Compound 352]
0 to 25% | COc1ccc2c(=O)n([C@H](C)CO)ccc2c1NC(=O)Cc1ccc(C(F)(F)F)c(F)c1 [Compound 358]
> 76% | COc1ccc2c(=O)n([C@H](C)C(N)=O)ccc2c1NC(=O)Cc1ccc(C(F)(F)F)cc1 [Compound 344, (R)-2-{6-Methoxy-1-oxo-5-[2-(4-trifluoromethyl-phenyl)-acetylamino]-1H-isoquinolin-2-yl}-propionamide]
> 76% | NCC(CCl)Cn1ccc2c(NC(=O)Cc3ccc(Cl)c(C(F)(F)F)c3)cccc2c1=O (stereo not drawn) [Compound 258, N-[2-(3-Amino-2-chloromethyl-propyl)-1-oxo-1,2-dihydro-isoquinolin-5-yl]-2-(4-chloro-3-trifluoromethyl-phenyl)-acetamide]
> 76% | C[C@H](C(N)=O)n1ccc2c(NC(=O)Cc3cccc(C(F)(F)F)c3)cccc2c1=O [Compound 297]
> 76% | C[C@H](CO)n1ccc2c(NC(=O)Cc3ccc(Cl)cc3F)cccc2c1=O [Compound 327]
> 76% | C[C@H](C(=O)Nc1cccc2c(=O)n([C@H](C)CO)ccc12)c1ccc(Cl)c(Cl)c1 [Compound 321]
26 to 50% | NC(=O)[C@H](CO)n1ccc2c(NC(=O)Cc3ccc(Cl)c(Cl)c3)cccc2c1=O [Compound 253]
> 76% | CC(C)C[C@H](CO)n1ccc2c(NC(=O)Cc3ccc(Cl)c(C(F)(F)F)c3)cccc2c1=O [Compound 280]
0 to 25% | C[C@H](C(N)=O)n1ccc2c(NC(=O)Cc3cccc(OC(F)(F)F)c3)cccc2c1=O [Compound 313]
> 76% | CNC(=O)[C@@H](C(C)C)n1ccc2c(NC(=O)[C@@H](C)c3ccc(Cl)cc3)cccc2c1=O [Compound 276, (R)-2-{5-[(S)-2-(4-Chloro-phenyl)-propionylamino]-1-oxo-1H-isoquinolin-2-yl}-3,N-dimethyl-butyramide]
51 to 75% | O=C(Cc1ccc(Cl)cc1C(F)(F)F)Nc1cccc2c(=O)n(C(CO)CO)ccc12 [Compound 228]
> 76% | C[C@H](C(N)=O)n1ccc2c(NC(=O)Cc3ccc(F)cc3Cl)cccc2c1=O [Compound 291]
> 76% | C[C@H](C(=O)Nc1cccc2c(=O)n([C@@H](C(N)=O)c3ccccc3)ccc12)c1ccc(Cl)c(Cl)c1 [Compound 278, (S)—N-[2-((R)-Carbamoyl-phenyl-methyl)-1-oxo-1,2-dihydro-isoquinolin-5-yl]-2-(3,4-dichloro-phenyl)-propionamide]
